# pIC50: −log10 of the molar value.
# Biological target: human NaV 1.8 (Homo sapiens, UniProt Q9Y5Y9)
# Test: E-VIPR assay detecting and measuring NaV inhibition properties
# Type: cell-based
# Details: HEK cells expressing a truncated form of human NaV 1.8; electrical stimulation, membrane potential FRET dyes
# Procedure, shortened: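 HEK cells expressing truncated full-activity NaV 1.8, co-transduced with KIR2.1 BacMam, seeded 16-20 h before assay. Electrical stimulation with FRET membrane-potential dyes (CC2-DMPE/DiSBAC6(3)) in HEPES-buffered bath solutions; 25% human serum final.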
# Chain of human NaV 1.8 (Q9Y5Y9 126-1722 limits assumed): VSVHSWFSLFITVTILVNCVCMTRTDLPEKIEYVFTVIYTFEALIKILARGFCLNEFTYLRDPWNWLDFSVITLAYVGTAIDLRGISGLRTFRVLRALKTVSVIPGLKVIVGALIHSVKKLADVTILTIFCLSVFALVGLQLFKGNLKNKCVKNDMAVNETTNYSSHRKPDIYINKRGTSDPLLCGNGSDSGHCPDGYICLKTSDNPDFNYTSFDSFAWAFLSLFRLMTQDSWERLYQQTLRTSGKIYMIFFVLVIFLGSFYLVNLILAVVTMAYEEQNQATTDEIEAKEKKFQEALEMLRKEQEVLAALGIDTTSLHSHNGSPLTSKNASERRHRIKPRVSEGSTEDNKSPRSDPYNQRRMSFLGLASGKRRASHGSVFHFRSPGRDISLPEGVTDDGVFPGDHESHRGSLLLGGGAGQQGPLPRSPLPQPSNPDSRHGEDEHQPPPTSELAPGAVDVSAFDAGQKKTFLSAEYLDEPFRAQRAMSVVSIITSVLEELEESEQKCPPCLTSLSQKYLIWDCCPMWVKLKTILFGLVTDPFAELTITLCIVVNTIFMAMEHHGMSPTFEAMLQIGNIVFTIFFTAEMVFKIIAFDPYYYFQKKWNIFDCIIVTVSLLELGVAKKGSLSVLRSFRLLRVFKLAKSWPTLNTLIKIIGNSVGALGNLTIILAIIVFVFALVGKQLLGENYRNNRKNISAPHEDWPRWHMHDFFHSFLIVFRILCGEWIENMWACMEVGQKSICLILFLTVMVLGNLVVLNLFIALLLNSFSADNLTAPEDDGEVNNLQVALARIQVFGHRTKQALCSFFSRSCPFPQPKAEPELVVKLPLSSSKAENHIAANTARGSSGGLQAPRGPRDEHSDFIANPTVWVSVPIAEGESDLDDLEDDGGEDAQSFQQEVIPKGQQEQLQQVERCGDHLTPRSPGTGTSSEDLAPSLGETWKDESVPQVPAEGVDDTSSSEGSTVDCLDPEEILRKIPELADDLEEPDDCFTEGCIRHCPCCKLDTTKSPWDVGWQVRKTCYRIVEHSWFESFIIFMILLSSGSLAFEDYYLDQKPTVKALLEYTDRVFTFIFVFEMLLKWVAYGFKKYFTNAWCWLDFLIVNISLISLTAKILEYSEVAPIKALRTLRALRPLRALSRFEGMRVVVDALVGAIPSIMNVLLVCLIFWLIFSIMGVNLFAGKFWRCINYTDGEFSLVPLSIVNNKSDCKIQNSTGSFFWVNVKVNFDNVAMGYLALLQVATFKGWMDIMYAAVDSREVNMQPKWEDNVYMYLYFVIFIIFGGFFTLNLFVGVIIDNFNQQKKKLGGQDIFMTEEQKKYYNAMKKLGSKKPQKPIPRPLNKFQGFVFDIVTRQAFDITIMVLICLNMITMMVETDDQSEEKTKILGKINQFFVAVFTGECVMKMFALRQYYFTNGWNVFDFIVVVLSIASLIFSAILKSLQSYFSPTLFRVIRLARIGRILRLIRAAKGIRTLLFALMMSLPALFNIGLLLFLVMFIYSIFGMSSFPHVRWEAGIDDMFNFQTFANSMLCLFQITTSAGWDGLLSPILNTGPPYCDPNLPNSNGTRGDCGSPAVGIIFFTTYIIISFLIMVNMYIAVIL
row,Structure (SMILES),pIC50
1,"COc1c([C@H]2[C@H](C(=O)Nc3ccc(C(C)O)nc3)O[C@@](C)(C(F)(F)F)[C@H]2C)ccc(F)c1C(F)F (relative stereo) [Compound 56, rel-(2R,3S,4S,5R)-3-(3-(difluoromethyl)-4-fluoro-2-methoxyphenyl)-N-(6-(1-hydroxyethyl)pyridin-3-yl)-4,5-dimethyl-5-(trifluoromethyl)tetrahydrofuran-2-carboxamide]",7.00 to 8.00
2,"COc1c(C2C(C(=O)Nc3ccc(CO)nc3)OC(C)(C(F)(F)F)C2C)ccc(F)c1C(F)F (single isomer, unassigned) [Compound 53]",> 8.00
3,"Cc1c([C@@H]2[C@@H](C(=O)Nc3ccc([C@@H](O)CO)nc3)O[C@](C)(C(F)(F)F)[C@@H]2C)ccc(F)c1F (single isomer, unassigned) [Compound 68, rel-(2S,3R,4R,5S)-3-(3,4-difluoro-2-methylphenyl)-N-(6-((R*)-1,2-dihydroxyethyl)pyridin-3-yl)-4,5-dimethyl-5-(trifluoromethyl)tetrahydrofuran-2-carboxamide]",≤ 6.00
4,"COc1c([C@H]2C[C@@](C)(C(F)(F)F)O[C@@H]2C(=O)Nc2ccc([C@H](O)CO)nc2)ccc(F)c1F (single isomer, unassigned) [Compound 27, rel-(2S,3R,5S)-3-(3,4-difluoro-2-methoxyphenyl)-N-(6-((S*)-1,2-dihydroxyethyl)pyridin-3-yl)-5-methyl-5-(trifluoromethyl)tetrahydrofuran-2-carboxamide]",≤ 6.00
5,"COc1nc(C(F)F)ccc1[C@@H]1[C@@H](C(=O)Nc2ccc(CO)nc2)O[C@](C)(C(F)(F)F)[C@@H]1C (stereo in doubt) [Compound 89, rel-(2S,3R,4R,5S)-3-(6-(difluoromethyl)-2-methoxypyridin-3-yl)-N-(6-(hydroxymethyl)pyridin-3-yl)-4,5-dimethyl-5-(trifluoromethyl)tetrahydrofuran-2-carboxamide]",≤ 6.00

# Now from value to compound:
row,pIC50,Structure (SMILES)
1,7.00 to 8.00,"COc1c(C2C(C(=O)Nc3ccc(C(O)CF)nc3)OC(C)(C(F)(F)F)C2C)ccc(F)c1F (single isomer, unassigned) [Compound 17, rel-(2R*,3S*,4S*,5R*)-3-(3,4-difluoro-2-methoxyphenyl)-N-(6-(2-fluoro-l-hydroxyethyl)pyridin-3-yl)-4,5-dimethyl-5-(trifluoromethyl)tetrahydrofuran-2-carboxamide]"
2,> 8.00,"COc1c(C2C(C(=O)Nc3cnc(CO)nc3)OC(C)(C(F)(F)F)C2C)ccc(F)c1C(F)F (single isomer, unassigned) [Compound 54]"
3,7.00 to 8.00,"COc1c([C@H]2[C@H](C(=O)Nc3cnc(CO)nc3)O[C@@](C)(C(F)(F)F)[C@H]2C)ccc(OC(F)F)c1F [Compound 19, (2R,3S,4S,5R)-3-(4-(difluoromethoxy)-3-fluoro-2-methoxyphenyl)-N-(2-(hydroxymethyl)pyrimidin-5-yl)-4,5-dimethyl-5-(trifluoromethyl)tetrahydrofuran-2-carboxamide]"
4,> 8.00,"COc1c([C@H]2[C@H](C(=O)Nc3ccc([C@H](O)[C@H](C)O)nc3)O[C@@](C)(C(F)(F)F)[C@H]2C)ccc(F)c1F (single isomer, unassigned) [Compound 4, rel-(2R*,3S*,4S*,5R*)-3-(3,4-difluoro-2-methoxyphenyl)-N-(6-((1S,2S)-1,2-dihydroxypropyl)pyridin-3-yl)-4,5-dimethyl-5-(trifluoromethyl)tetrahydrofuran-2-carboxamide]"
5,> 8.00,"COc1c([C@H]2[C@H](C(=O)Nc3cnc(CO)nc3)O[C@@](C)(C(F)(F)F)[C@H]2C)ccc(F)c1F [Compound 15, (2R,3S,4S,5R)-3-(3,4-difluoro-2-methoxyphenyl)-N-(2-(hydroxymethyl)pyrimidin-5-yl)-4,5-dimethyl-5-(trifluoromethyl)tetrahydrofuran-2-carboxamide]"
